Like-named read-outs stand apart in the source and are kept apart here.
Columns and labels:
Assay in all cases: Caspase inhibition assay, second-order inactivation rate
Format in all cases: biochemical
[1] = target: T1, caspase-2 (Homo sapiens, UniProt P42575)
T1 construct: purchased Biomol (Exeter, UK)
Procedure: (§1) Active recombinant caspase-1, -3, -4, -7 and -8 were prepared as described previously. Caspase-2 was purchased from Biomol (Exeter, UK), caspase-6 from BD Biosciences (Oxford, UK), caspase-9 from Europa Bioproducts Ltd. (Cambridge, UK) and caspase-10 from Chemicon International Inc. (Harrow, UK). Cathepsin B and granzyme B were purchased from Merck Biosciences Ltd. (Nottingham, UK). Fluorogenic protease substrates were purchased from Bachem Ltd. (St. Helens, UK). All reactions were carried out at 37°C using a Molecular Devices (Wokingham, UK) Gemini plate-reader at 460 nm (excitation wavelength of 390 nm). Caspase inhibition assays were conducted, with minor modifications, as described by Margolin and colleagues. Irreversible kinetics were analysed by calculations of second-order inactivation rate constants (k) using GraphPad (La Jolla, CA, USA) Prism 4.0 software. A larger number for an inactivation rate constant indicates a greater degree of inactivation. To determine the inhibitory effect on cathepsin B, 4.25 nM of the enzyme were added to 250 μM z-RR-AMC in 10 mM 2-morpholino-ethanesulfonic acid pH 6.0, 1 mM DTT, 1 mM EDTA and 0.03% Brij35 in the presence or absence of VX-166 and the reaction monitored continuously over 15 minutes. Granzyme B was assayed, with minor modifications, as described by Thornberry and colleagues. Additional counterscreening against a panel of 83 additional enzymes, ion channels and receptors was carried out at MDS Pharma Services (Bothell, WA, USA).

[2] = target: T2, caspase-6 (Homo sapiens, UniProt P55212); conditions: recombinant caspase-6, 37°C, n = 4; read-out: Second order inactivation rate constant K
T2 construct: purchased BD Biosciences (Oxford, UK)
T2 sequence (P55212 24-293): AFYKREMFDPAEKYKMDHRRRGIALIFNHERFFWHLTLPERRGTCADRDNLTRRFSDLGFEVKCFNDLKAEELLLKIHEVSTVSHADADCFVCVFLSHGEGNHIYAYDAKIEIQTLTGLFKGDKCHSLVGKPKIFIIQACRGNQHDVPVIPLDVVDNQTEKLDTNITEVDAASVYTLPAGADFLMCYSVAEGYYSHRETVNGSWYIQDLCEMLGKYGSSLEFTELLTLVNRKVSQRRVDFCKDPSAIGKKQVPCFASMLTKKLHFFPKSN
Procedure: as §1

[3] = target: T3, caspase-1 (Homo sapiens, UniProt P29466); conditions: caspase-1, text; read-out: second order inactivation rate constant (k)
T3 construct: Active recombinant caspase-1, -3, -4, -7 and -8 were prepared as described previously; made in house
T3 sequence (P29466 120-297 limits assumed): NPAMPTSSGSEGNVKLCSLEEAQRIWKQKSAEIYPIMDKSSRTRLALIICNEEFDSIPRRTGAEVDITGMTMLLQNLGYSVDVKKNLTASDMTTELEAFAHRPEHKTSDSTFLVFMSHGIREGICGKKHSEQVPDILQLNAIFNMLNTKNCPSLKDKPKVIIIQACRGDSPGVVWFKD
T3 sequence (P29466 317-404 limits assumed): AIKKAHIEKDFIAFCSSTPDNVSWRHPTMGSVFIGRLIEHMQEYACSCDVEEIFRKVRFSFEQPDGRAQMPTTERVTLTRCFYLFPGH
Procedure: as §1

[4] = target: T4, caspase-8 (Homo sapiens, UniProt Q14790); conditions: recombinant caspase-8, 37°C, n = 4; read-out: Second order inactivation rate constant K
T4 construct: Active recombinant caspase-1, -3, -4, -7 and -8 were prepared as described previously; made in house
T4 sequence (Q14790 217-374 limits assumed): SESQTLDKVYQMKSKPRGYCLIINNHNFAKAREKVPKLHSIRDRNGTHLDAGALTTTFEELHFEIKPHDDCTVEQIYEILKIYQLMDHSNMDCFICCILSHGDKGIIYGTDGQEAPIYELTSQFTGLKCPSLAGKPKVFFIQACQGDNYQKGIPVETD
T4 sequence (Q14790 385-479 limits assumed): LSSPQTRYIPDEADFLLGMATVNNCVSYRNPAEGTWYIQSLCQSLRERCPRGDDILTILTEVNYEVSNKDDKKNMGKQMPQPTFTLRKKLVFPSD
Procedure: as §1

[5] = target: T5, caspase-7 (Homo sapiens, UniProt P55210); conditions: recombinant caspase-7, 37°C, n = 4; read-out: Second order inactivation rate constant K
T5 construct: Active recombinant caspase-1, -3, -4, -7 and -8 were prepared as described previously; made in house
T5 sequence (P55210 24-198 limits assumed): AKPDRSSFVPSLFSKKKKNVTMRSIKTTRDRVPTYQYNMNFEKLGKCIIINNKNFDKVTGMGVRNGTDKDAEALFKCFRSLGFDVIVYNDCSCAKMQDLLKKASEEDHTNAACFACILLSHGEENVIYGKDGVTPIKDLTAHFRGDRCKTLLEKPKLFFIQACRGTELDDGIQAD
T5 sequence (P55210 207-303 limits assumed): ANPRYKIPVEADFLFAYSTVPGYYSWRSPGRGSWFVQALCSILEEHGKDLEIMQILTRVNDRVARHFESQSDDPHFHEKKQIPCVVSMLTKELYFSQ
Procedure: as §1

[6] = target: T6, caspase-3 (Homo sapiens, UniProt P42574)
T6 construct: Active recombinant caspase-1, -3, -4, -7 and -8 were prepared as described previously; made in house
T6 sequence (P42574 29-175 limits assumed): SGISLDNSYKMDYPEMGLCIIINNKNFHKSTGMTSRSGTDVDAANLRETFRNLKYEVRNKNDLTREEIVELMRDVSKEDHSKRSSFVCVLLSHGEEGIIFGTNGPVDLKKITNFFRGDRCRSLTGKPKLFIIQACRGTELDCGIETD
T6 sequence (P42574 176-277 limits assumed): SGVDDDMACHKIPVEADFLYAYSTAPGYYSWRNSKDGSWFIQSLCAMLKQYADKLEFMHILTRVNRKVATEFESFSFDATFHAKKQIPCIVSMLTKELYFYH
Procedure: as §1

[7] = target: T7, caspase-10 (Homo sapiens, UniProt Q92851); conditions: recombinant caspase-10, 37°C, n = 4; read-out: Second order inactivation rate constant K
T7 construct: purchased Chemicon International Inc. (Harrow, UK)
T7 sequence (Q92851 220-521): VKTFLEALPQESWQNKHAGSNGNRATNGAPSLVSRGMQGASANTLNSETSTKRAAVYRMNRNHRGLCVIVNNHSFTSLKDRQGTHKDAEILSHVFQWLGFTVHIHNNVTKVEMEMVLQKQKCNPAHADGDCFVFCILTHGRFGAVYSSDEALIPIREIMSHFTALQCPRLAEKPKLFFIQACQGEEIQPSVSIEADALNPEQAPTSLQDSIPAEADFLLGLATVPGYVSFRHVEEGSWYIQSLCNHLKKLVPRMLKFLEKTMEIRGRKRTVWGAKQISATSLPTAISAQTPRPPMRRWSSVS
Procedure: as §1

[8] = target: T8, caspase-4 (Homo sapiens, UniProt P49662); conditions: recombinant caspase-4, 37°C, n = 4; read-out: Second order inactivation rate constant K
T8 construct: Active recombinant caspase-1, -3, -4, -7 and -8 were prepared as described previously; made in house
T8 sequence (P49662 81-270 limits assumed): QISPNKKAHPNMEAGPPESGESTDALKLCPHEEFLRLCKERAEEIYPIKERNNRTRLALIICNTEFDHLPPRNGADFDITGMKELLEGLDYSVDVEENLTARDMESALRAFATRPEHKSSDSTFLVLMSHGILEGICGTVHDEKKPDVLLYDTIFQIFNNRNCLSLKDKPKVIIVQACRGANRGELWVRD
T8 sequence (P49662 290-377 limits assumed): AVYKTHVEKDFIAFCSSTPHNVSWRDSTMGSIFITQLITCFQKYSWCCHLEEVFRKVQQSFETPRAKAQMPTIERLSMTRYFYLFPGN
Procedure: as §1

[9] = target: T9, caspase-9 (Homo sapiens, UniProt P55211); conditions: recombinant caspase-9, 37°C, n = 4; read-out: Second order inactivation rate constant K
T9 construct: purchased Europa Bioproducts Ltd. (Cambridge, UK)
T9 sequence (P55211 whole entry): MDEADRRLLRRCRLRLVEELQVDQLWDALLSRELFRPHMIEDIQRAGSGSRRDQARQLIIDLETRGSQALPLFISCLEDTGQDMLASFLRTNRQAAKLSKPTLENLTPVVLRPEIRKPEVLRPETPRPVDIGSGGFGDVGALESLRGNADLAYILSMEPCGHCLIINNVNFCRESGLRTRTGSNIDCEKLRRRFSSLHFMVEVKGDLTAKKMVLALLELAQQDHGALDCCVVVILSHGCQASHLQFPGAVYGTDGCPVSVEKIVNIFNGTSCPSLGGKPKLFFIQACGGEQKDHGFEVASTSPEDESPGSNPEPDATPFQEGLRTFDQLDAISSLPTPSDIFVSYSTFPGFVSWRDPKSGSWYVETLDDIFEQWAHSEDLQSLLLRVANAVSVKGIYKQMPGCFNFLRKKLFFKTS
Procedure: as §1

[10] = read-out: Second order inactivation rate constant K

T1 sequence (P42575 whole entry): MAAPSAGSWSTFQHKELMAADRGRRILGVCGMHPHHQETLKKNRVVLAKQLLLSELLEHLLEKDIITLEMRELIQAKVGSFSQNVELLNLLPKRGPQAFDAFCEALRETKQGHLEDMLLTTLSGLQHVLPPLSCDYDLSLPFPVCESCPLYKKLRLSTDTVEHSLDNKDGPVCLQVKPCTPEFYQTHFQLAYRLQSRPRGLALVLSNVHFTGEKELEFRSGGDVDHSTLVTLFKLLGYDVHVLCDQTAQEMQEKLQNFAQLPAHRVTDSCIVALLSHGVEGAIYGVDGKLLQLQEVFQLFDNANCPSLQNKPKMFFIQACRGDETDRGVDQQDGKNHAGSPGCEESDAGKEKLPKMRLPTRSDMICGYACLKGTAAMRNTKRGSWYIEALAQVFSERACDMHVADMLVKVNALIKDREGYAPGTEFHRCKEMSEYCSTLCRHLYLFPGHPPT

CCC(C(=O)NC(CC(=O)O)C(=O)COc1c(F)c(F)cc(F)c1F)n1cccc(NC(=O)OC)c1=O (centres unmarked) [VX-166] showed a kinact/KI ([1]; caspase-2, text, read-out: second order inactivation rate constant (k)) of 6000 M⁻¹ s⁻¹, a kinact/KI [1, 10] of 6190 ± 510 M⁻¹ s⁻¹ and a kinact/KI [2] of 77000 ± 3000 M⁻¹ s⁻¹. The kinact/KI [3] was over 1e+06 M⁻¹ s⁻¹, the kinact/KI [4] was 194000 ± 52000 M⁻¹ s⁻¹ and the kinact/KI [5] was 526000 ± 1500 M⁻¹ s⁻¹. For the same molecule, the kinact/KI ([6]; caspase-3, text, read-out: second order inactivation rate constant (k)) was over 1e+06 M⁻¹ s⁻¹, the kinact/KI [6, 10] was 1.17e+06 ± 183000 M⁻¹ s⁻¹ and the kinact/KI [7] was 49000 ± 3800 M⁻¹ s⁻¹. It also gave a kinact/KI [8] of 480000 ± 32000 M⁻¹ s⁻¹ and a kinact/KI [9] of 131000 ± 21000 M⁻¹ s⁻¹.

Source: publication PMC2784364, “VX-166: a novel potent small molecule caspase inhibitor as a potential therapy for sepsis” (Critical Care, 2009)
